The source made the active and inactive calls. The calls are words filed in the database; no cut-off is given here.
Each compound was assayed on Pseudomonas aeruginosa (assay: Potentiation of rifampicin-induced antibacterial activity against Pseudomonas aeruginosa PAO1 assessed as fold change in rifampicin MIC in low salt containing media by Mueller-Hinton broth based assay). Conditions: not given.
Format: functional

**Q.** NC[C@H]1O[C@@H](OCCC23CC4CC(CC(C4)C2)C3)[C@H](N)[C@@H](OCc2ccc3ccccc3c2)[C@H]1N was tested. Which “fold change (FC)” value did it give?
**A.** 2

What follows are compounds tested on Acinetobacter baumannii (assay: Potentiation of rifampicin-induced antibacterial activity against Acinetobacter baumannii ATCC 17978 assessed as fold change in rifampicin MIC in low salt containing media by Mueller-Hinton broth based assay). Conditions: not given.
Format: functional

**Q.** For NC[C@H]1O[C@@H](OCCC23CC4CC(CC(C4)C2)C3)[C@H](N)[C@@H](OCc2ccc3ccccc3c2)[C@H]1N, which “fold change (FC)” value is on record?
**A.** >=256

What follows are compounds tested on Acinetobacter baumannii (assay: Potentiation of rifampicin-induced antibacterial activity against Acinetobacter baumannii 92247 assessed as fold change in rifampicin MIC at 2 to 8 microg/ml in high concentration of Ca++ and Mg++ containing media by Mueller-Hinton broth based assay). Conditions: dose 2-8 µg/ml.
Format: functional

**Q.** With NC[C@H]1O[C@@H](OCCC23CC4CC(CC(C4)C2)C3)[C@H](N)[C@@H](OCc2ccc3ccccc3c2)[C@H]1N as the compound, how does the “fold change (FC)” value read?
**A.** 2

The compounds below were run on Escherichia coli (assay: Antibacterial activity against Escherichia coli ATCC 25922 in high concentration of Ca++ and Mg++ containing media by Mueller-Hinton broth based assay). Conditions: not given.
Format: functional

**Q.** With NC[C@H]1O[C@@H](OCCC23CC4CC(CC(C4)C2)C3)[C@H](N)[C@@H](OCc2ccc3ccccc3c2)[C@H]1N as the compound, how does the MIC read?
**A.** > 128 µg/mL

The compounds below were run on Acinetobacter baumannii (assay: Potentiation of rifampicin-induced antibacterial activity against multidrug resistant Acinetobacter baumannii LAC-4 in low salt containing media by Mueller-Hinton broth based assay). Conditions: not given.
Format: functional, organism-based

**Q.** For NC[C@H]1O[C@@H](OCCC23CC4CC(CC(C4)C2)C3)[C@H](N)[C@@H](OCc2ccc3ccccc3c2)[C@H]1N, which Activity is on record?
**A.** inactive

What follows are compounds tested on Escherichia coli (assay: Potentiation of rifampicin-induced antibacterial activity against Escherichia coli ATCC 25922 assessed as rifampicin MIC at 2 to 8 microg/ml in high concentration of Ca++ and Mg++ containing media by Mueller-Hinton broth based assay). Conditions: dose 2-8 µg/ml.
Format: functional

**Q.** For NC[C@H]1O[C@@H](OCCC23CC4CC(CC(C4)C2)C3)[C@H](N)[C@@H](OCc2ccc3ccccc3c2)[C@H]1N, which MIC is on record?
**A.** 2 µg/mL

Each compound was assayed on Acinetobacter baumannii (assay: Potentiation of rifampicin-induced antibacterial activity against Acinetobacter baumannii 92247 assessed as fold change in rifampicin MIC at 16 microg/ml in high concentration of Ca++ and Mg++ containing media by Mueller-Hinton broth based assay). Conditions: dose 16 µg/ml.
Format: functional

**Q.** With NC[C@H]1O[C@@H](OCCC23CC4CC(CC(C4)C2)C3)[C@H](N)[C@@H](OCc2ccc3ccccc3c2)[C@H]1N as the compound, how does the “fold change (FC)” value read?
**A.** 64

What follows are compounds tested on Acinetobacter baumannii (assay: Antibacterial activity against Acinetobacter baumannii 92247 in high concentration of Ca++ and Mg++ containing media by Mueller-Hinton broth based assay). Conditions: not given.
Format: functional

**Q.** How did the MIC turn out when NC[C@H]1O[C@@H](OCCC23CC4CC(CC(C4)C2)C3)[C@H](N)[C@@H](OCc2ccc3ccccc3c2)[C@H]1N was run?
**A.** > 128 µg/mL

Each compound was assayed on Escherichia coli (assay: Potentiation of rifampicin-induced antibacterial activity against Escherichia coli ATCC 25922 assessed as fold change in rifampicin MIC at 2 to 8 microg/ml in high concentration of Ca++ and Mg++ containing media by Mueller-Hinton broth based assay). Conditions: dose 2-8 µg/ml.
Format: functional

**Q.** NC[C@H]1O[C@@H](OCCC23CC4CC(CC(C4)C2)C3)[C@H](N)[C@@H](OCc2ccc3ccccc3c2)[C@H]1N was tested. Which “fold change (FC)” value did it give?
**A.** 1

These compounds were tested on Escherichia coli (assay: Potentiation of rifampicin-induced antibacterial activity against Escherichia coli clinical isolate 94474 at 1/4 MIC in low salt containing media by Mueller-Hinton broth based assay). Conditions: not given.
Format: functional, organism-based

**Q.** For NC[C@H]1O[C@@H](OCCC23CC4CC(CC(C4)C2)C3)[C@H](N)[C@@H](OCc2ccc3ccccc3c2)[C@H]1N, which Activity is on record?
**A.** inactive

These compounds were tested on Acinetobacter baumannii (assay: Potentiation of rifampicin-induced antibacterial activity against multidrug resistant Acinetobacter baumannii clinical isolate 92247 at 1/4 MIC in low salt containing media by Mueller-Hinton broth based assay). Conditions: not given.
Format: functional, organism-based

**Q.** NC[C@H]1O[C@@H](OCCC23CC4CC(CC(C4)C2)C3)[C@H](N)[C@@H](OCc2ccc3ccccc3c2)[C@H]1N was tested. Which Activity did it give?
**A.** inactive

Each compound was assayed on Acinetobacter baumannii (assay: Potentiation of rifampicin-induced antibacterial activity against Acinetobacter baumannii 92247 assessed as rifampicin MIC at 2 to 8 microg/ml in high concentration of Ca++ and Mg++ containing media by Mueller-Hinton broth based assay). Conditions: dose 2-8 µg/ml.
Format: functional

**Q.** With NC[C@H]1O[C@@H](OCCC23CC4CC(CC(C4)C2)C3)[C@H](N)[C@@H](OCc2ccc3ccccc3c2)[C@H]1N as the compound, how does the MIC read?
**A.** 2 µg/mL

The compounds below were run on Acinetobacter baumannii (assay: Potentiation of rifampicin-induced antibacterial activity against multidrug resistant Acinetobacter baumannii AB031 at 1/4 MIC in low salt containing media by Mueller-Hinton broth based assay). Conditions: not given.
Format: functional, organism-based

**Q.** With NC[C@H]1O[C@@H](OCCC23CC4CC(CC(C4)C2)C3)[C@H](N)[C@@H](OCc2ccc3ccccc3c2)[C@H]1N as the compound, how does the Activity read?
**A.** inactive

What follows are compounds tested on Escherichia coli (assay: Potentiation of rifampicin-induced antibacterial activity against Escherichia coli […] assessed as rifampicin MIC at 2 to 8 microg/ml in high concentration of Ca++ and Mg++ containing media by Mueller-Hinton broth based assay). Conditions: dose 2-8 µg/ml.
Format: functional

**Q.** NC[C@H]1O[C@@H](OCCC23CC4CC(CC(C4)C2)C3)[C@H](N)[C@@H](OCc2ccc3ccccc3c2)[C@H]1N was tested. Which MIC did it give?
**A.** 4 µg/mL

What follows are compounds tested on Escherichia coli (assay: Potentiation of rifampicin-induced antibacterial activity against Escherichia coli ATCC 25922 assessed as fold change in rifampicin MIC at 16 microg/ml in high concentration of Ca++ and Mg++ containing media by Mueller-Hinton broth based assay). Conditions: dose 16 µg/ml.
Format: functional

**Q.** Which “fold change (FC)” value does the source give for NC[C@H]1O[C@@H](OCCC23CC4CC(CC(C4)C2)C3)[C@H](N)[C@@H](OCc2ccc3ccccc3c2)[C@H]1N here?
**A.** 2

Each compound was assayed on Acinetobacter baumannii (assay: Antibacterial activity against Acinetobacter baumannii ATCC 17978 in high concentration of Ca++ and Mg++ containing media by Mueller-Hinton broth based assay). Conditions: not given.
Format: functional

**Q.** With NC[C@H]1O[C@@H](OCCC23CC4CC(CC(C4)C2)C3)[C@H](N)[C@@H](OCc2ccc3ccccc3c2)[C@H]1N as the compound, how does the MIC read?
**A.** > 128 µg/mL

The compounds below were run on Escherichia coli (assay: Potentiation of rifampicin-induced antibacterial activity against Escherichia coli […] assessed as rifampicin MIC at 16 microg/ml in high concentration of Ca++ and Mg++ containing media by Mueller-Hinton broth based assay). Conditions: dose 16 µg/ml.
Format: functional

**Q.** How did the MIC turn out when NC[C@H]1O[C@@H](OCCC23CC4CC(CC(C4)C2)C3)[C@H](N)[C@@H](OCc2ccc3ccccc3c2)[C@H]1N was run?
**A.** 16 µg/mL

What follows are compounds tested on Acinetobacter baumannii (assay: Potentiation of rifampicin-induced antibacterial activity against Acinetobacter baumannii 92247 assessed as rifampicin MIC at 16 microg/ml in high concentration of Ca++ and Mg++ containing media by Mueller-Hinton broth based assay). Conditions: dose 16 µg/ml.
Format: functional

**Q.** For NC[C@H]1O[C@@H](OCCC23CC4CC(CC(C4)C2)C3)[C@H](N)[C@@H](OCc2ccc3ccccc3c2)[C@H]1N, which MIC is on record?
**A.** 16 µg/mL

Each compound was assayed on Pseudomonas aeruginosa (assay: Antibacterial activity against Pseudomonas aeruginosa PAO1 in low salt containing media by Mueller-Hinton broth based assay). Conditions: not given.
Format: functional

**Q.** How did the MIC turn out when NC[C@H]1O[C@@H](OCCC23CC4CC(CC(C4)C2)C3)[C@H](N)[C@@H](OCc2ccc3ccccc3c2)[C@H]1N was run?
**A.** 32 µg/mL

From ChEMBL document CHEMBL5584201, “Amphiphilic tribasic galactosamines potentiate rifampicin in Gram-negative bacteria at low Mg++/Ca++concentrations” (Bioorg Med Chem Lett, 2024)
